Laboratory results: US5242937A, “Topically active ocular thiadiazole sulfonamide carbonic anhydrase inhibitors” (Research Corporation Technologies, Inc., priority 1990, dated 1993)
Values after ≈ are worked out from the molar mass of the structure shown.

Assays:
[1] = oral administration; cited from earlier work
[2] = topical CAI, IOP lowering; cited from earlier work
carbonic anhydrase II = carbonic anhydrase II (Homo sapiens, UniProt P00918); test: Enzyme inhibition, KI versus carbonic anhydrase II (enzymatic micromethod); type: biochemical; conditions: 0°
Experimental: In these examples the general methodology for testing these compounds is as follows. Melting point (M.P.) is assessed using a standard Fisher-Johns apparatus. Quantitative analysis of drug concentrations is carried out using either an enzymatic assay or by high performance liquid chromatography (HPLC). The enzymatic assay is a modification of Maren's micromethod, J. Pharmacol. Exp. Ther., 130:26-29, 1960. Essentially, a reaction volume of 0.8 mL, containing a carbonate/bicarbonate buffer, phenol red, purified carbonic anhydrase, and inhibitor is maintained at 0° degrees and saturation with CO2 by constant bubbling. The time required for acidification to a color change endpoint is monitored as the dependent variable. […] The HPLC analysis is performed using reverse phase chromatography (C18) and gradient elution. At a flow rate of 2mL/min, initial mobile phase composition is 95% A, 5% B, where A is 50 mM phosphate buffer, pH=2, and B is CH3 OH. This composition is altered in a linear fashion over 12 minutes to a final composition of 5:95, A:B, v:v. Capacity factor (k') is determined using the relationship k'=([…] -Vo)/Vo where Ve is the elution volume of the analyte of interest and Vo is the void volume of the column. HPLC analysis using photodiode array UV-visible detection (400-200 nm) is also used to assess purity and acquire spectral information.
(§1) Corneal permeability rate constants (kin) are determined in an in vitro system. Freshly excised bovine corneas are placed on 8 mm tissue culture wells (epithelial surface down) filled with tissue culture medium containing test compound. The well formed by the curvature of the cornea is filled with drug-free medium. Samples of medium are taken from the endothelial side for determination of drug concentrations. The rate constant for drug appearance is kin. Enzyme inhibition is assessed by determination of KI versus carbonic anhydrase II using the enzymatic method. Accession rate is the product of kin and maximum buffer solubility.

[3] = Solubility in pH=7.4 phosphate buffer (saturated solutions); type: physicochemical; conditions: aqueous buffer
Experimental: (§2) In these examples the general methodology for testing these compounds is as follows. Melting point (M.P.) is assessed using a standard Fisher-Johns apparatus. Quantitative analysis of drug concentrations is carried out using either an enzymatic assay or by high performance liquid chromatography (HPLC). The enzymatic assay is a modification of Maren's micromethod, J. Pharmacol. Exp. Ther., 130:26-29, 1960. Essentially, a reaction volume of 0.8 mL, containing a carbonate/bicarbonate buffer, phenol red, purified carbonic anhydrase, and inhibitor is maintained at 0° degrees and saturation with CO2 by constant bubbling. The time required for acidification to a color change endpoint is monitored as the dependent variable. Carbonic anhydrase inhibitors increase reaction time in proportion to their concentrations over a useful range. The HPLC analysis is performed using reverse phase chromatography (C18) and gradient elution. At a flow rate of 2mL/min, initial mobile phase composition is 95% A, 5% B, where A is 50 mM phosphate buffer, pH=2, and B is CH3 OH. This composition is altered in a linear fashion over 12 minutes to a final composition of 5:95, A:B, v:v. Capacity factor (k') is determined using the relationship k'=([…] -Vo)/Vo where Ve is the elution volume of the analyte of interest and Vo is the void volume of the column. HPLC analysis using photodiode array UV-visible detection (400-200 nm) is also used to assess purity and acquire spectral information.
Solubility is determined by preparing saturated solutions of test compounds in pH=7.4 phosphate buffer followed by analysis of the solution for compound concentration.

[4] = Corneal permeability rate constant (kin) across freshly excised bovine corneas in vitro; accession rate; type: in vitro ADME; conditions: for kin (corneal permeability rate constant): excised bovine corneas, in vitro
Experimental: as §2
as §1, with “solubility. This is a useful estimate of delivery rate of drug to the anterior chamber of the eye following topical administration.” for “solubility.”

[5] = Partition coefficients (PC), organic solvent : pH=7.4 phosphate buffer; type: physicochemical; conditions: for PC (CHCl3 : buffer): chloroform : pH=7.4 phosphate buffer; for PC (ether: buffer): diethyl ether : pH=7.4 phosphate buffer
Experimental: as §2
Partition coefficients (PC) are determined by dissolving test compound in pH=7.4 phosphate buffer (saturated with the appropriate organic solvent) or organic solvent (diethyl ether or chloroform) saturated with buffer. Equal volumes of organic and aqueous solutions are added to test tubes which are then capped and mixed by inversion until equilibrium is achieved. The ratio of drug concentration organic: aqueous is the partition coefficient.

[6] = test system: intraocular pressure (IOP); test: Ocular hypotensive effects following systemic administration (Table 1); type: in vivo, New Zealand albino rabbits; conditions: subcutaneous, 225 μmol in corn oil, mean (S.D.)
Experimental: B.1 Ocular Hypotensive Effects Following systemic Administration
Compounds are dissolved in corn oil and injected subcutaneously into New Zealand albino rabbits. […] Injection time is defined as t=0. […] Values shown are IOP in mm Hg represented as the mean (S.D.) of n replications. Data are analyzed using Student's t-test for unpaired data. For time points marked with asterisks, p<0.05, which is taken to indicate a difference from vehicle treated controls.

[7] = test system: intraocular pressure (IOP); test: Ocular hypotensive effects following topical administration (Table 2); type: in vivo, New Zealand white rabbits; conditions: IOP lowering; for Maximum Topical Effect: one eye, contralateral eye vehicle
Experimental: B.2 Ocular Hypotensive Effects Following Topical Administration
IOP was determined using rabbits familiarized with the Alcon pneumotonometric measurement employed. Drugs were dissolved or suspended in 0.9% saline or a 1% hydroxypropylmethyl-cellulose gel and instilled into one eye. The contralateral eye received the vehicle only, thereby serving as a control. Initial screening was accomplished using measurements every 15-30 minutes for 5-6 hours. Statistical analysis wa then performed using Student's t-test for paired data (two-tailed).

| SMILES | Ki (carbonic anhydrase II) [nM] | accession rate [4] [µM/h] | PC (CHCl3 : buffer) [5] | Duration [7] [h] | Time to Peak effect [7] [min] | Maximum Topical Effect [7] | solubility [3] [mM] | kin (corneal permeability rate constant) [4] [h⁻¹] | also measured |
| --- | --- | --- | --- | --- | --- | --- | --- | --- | --- |
| CC(=O)Nc1nnc(S(N)(=O)=O)s1 [acetazolamide, 2-acetylamino-1,3,4-thiadiazole-5-sulfonamide] |  |  |  |  |  |  |  |  | decrease of IOP [1]: shown to decrease IOP following oral administration |
| Nc1ccc2nc(S(N)(=O)=O)sc2c1 [aminozolamide] |  |  |  |  |  |  |  |  | effectiveness in clinical trial [2]: partially effective in clinical trial |
| CCOC(=O)C(=O)Nc1nnc(S(N)(=O)=O)s1 [Example 5, Ethyloxaloylazolamide] | 32 | 309 | 0.23 | ≥ 5 | 75 | -3.0 ± 0.7 mm Hg |  |  | solubility ([3]; unit nm [sic]): 91 mM (≈ 25500 µg/mL); PC (ether: buffer) [5]: 0.3; IOP ([6]; t=0 min): 18.4(1.9) mm Hg; IOP ([6]; t=20 min): 17.5(2.1) mm Hg; IOP ([6]; t=45 min, * p<0.05 vs vehicle): 15.0(2.6) mm Hg; IOP ([6]; t=60 min, * p<0.05 vs vehicle): 14.5(2.2) mm Hg; IOP ([6]; t=75 min, * p<0.05 vs vehicle): 14.6(5.1) mm Hg; IOP ([6]; t=90 min, * p<0.05 vs vehicle): 17.8(1.7) mm Hg; IOP ([6]; t=110 min, * p<0.05 vs vehicle): 17.3(2.2) mm Hg; IOP ([6]; t=150 min, * p<0.05 vs vehicle): 18.3(1.3) mm Hg |
| NS(=O)(=O)c1nnc(N2C(=O)C(O)C(O)C2=O)s1 (stereo not drawn) [Example 4, Dihydroxysuccinimidazolamide] | 8 | ≤ 21 |  | ≥ 6 | 60 | -4.0 ± 0.7 mm Hg | > 700 | 3e-05 |  |
| CCOC(=O)CCCCC(=O)Nc1nnc(S(N)(=O)=O)s1 [Compound 8, ethyladipoylazolamide] |  |  |  | 2 | 30 | approx. -1.0 mm Hg |  |  |  |
| NS(=O)(=O)c1nnc(N2C(=O)C=CC2=O)s1 [Example 3, Maleimidiazolamide] | 12 | 10.8 |  | 3 | 60 | -2.0 ± 0.5 mm Hg | 1 (≈ 260 µg/mL) | 0.0108 |  |
| NS(=O)(=O)c1nnc(N2C(=O)CCC2=O)s1 [Example 2, Succinylimidazolamide] |  | 21 |  | 2 | 30 | -2.3 ± 1.7 mm Hg | 10 (≈ 2620 µg/mL) | 0.0021 |  |
| NS(=O)(=O)c1nnc(NC(=O)CCCCC(=O)O)s1 [Example 8] |  |  |  |  |  |  | 0.5 (≈ 154 µg/mL) |  |  |
| CCOC(=O)CCCCC(=O)Nc1nnc(S(N)(=O)=O)s1 [Example 7] |  | 26 | 3.03 |  |  |  | 0.2 (≈ 67.3 µg/mL) | 0.0512 | Ki (carbonic anhydrase II; unit inferred): 60 nM |
| CCOC(=O)CCC(=O)Nc1nnc(S(N)(=O)=O)s1 [Example 6, Ethylsuccinylazolamide] |  | 91 | 1.24 |  |  |  | 5.8 (≈ 1790 µg/mL) | 0.0155 | PC (ether: buffer) [5]: 0.35; IOP ([6]; t=0 min): 18.3(1.0) mm Hg; IOP ([6]; t=20 min): 17.5(2.0) mm Hg; IOP ([6]; t=45 min, * p<0.05 vs vehicle): 15.4(2.1) mm Hg; IOP ([6]; t=60 min, * p<0.05 vs vehicle): 13.7(1.6) mm Hg; IOP ([6]; t=75 min, * p<0.05 vs vehicle): 12.4(1.9) mm Hg; IOP ([6]; t=90 min, * p<0.05 vs vehicle): 15.1(2.0) mm Hg; IOP ([6]; t=110 min, * p<0.05 vs vehicle): 15.0(1.8) mm Hg; IOP ([6]; t=150 min, * p<0.05 vs vehicle): 16.6(1.6) mm Hg |
